From ChEMBL document CHEMBL1122963, “[3H]Batrachotoxinin A 20 alpha-benzoate binding to voltage-sensitive sodium channels: a rapid and quantitative assay for local anesthetic activity in a variety of drugs” (J Med Chem, 1985)

molecular target: T1, Sodium channel alpha subunits; brain (Types I, II, III) (Homo sapiens, UniProt P35498+Q99250+Q9NY46); assay: Inhibition of binding of Batrachotoxinin [3H]BTX-B to high affinity sites on voltage dependent sodium channels in a vesicular preparation from guinea pig cerebral cortex; assay type: tissue-based, Cavia porcellus; details: not given

In order of falling IC50:
1. CN1CC[C@@]23CCCC[C@@H]2[C@@H]1Cc1ccc(O)cc13 [DEXTRORPHAN]  18 µM
2. COc1ccc(CCN(C)CCCC2(c3ccc(OC)c(OC)c3)S(=O)(=O)CCCS2(=O)=O)cc1OC  13.5 µM

In the case of CN(C)CCCN1c2ccccc2CCc2ccc(Cl)cc21 [CLOMIPRAMINE], the IC50 is reported as < 10 µM.
With CN(C)CC/C=C1/c2ccccc2Sc2ccc(Cl)cc21 [CHLORPROTHIXENE] the IC50 was < 10 µM.

molecular target: T1, Sodium channel alpha subunits; brain (Types I, II, III); details: Cavia porcellus; Cerebral cortex; at 10 µM

In order of falling inhibition:
1. O=C(CCCN1CCC2(CC1)C(=O)NCN2c1ccccc1)c1ccc(F)cc1 [SPIPERONE]  98.7%
2. (-)-BUTACLAMOL  87.1%
3. O=C(CCCN1CCC(O)(c2ccc(Cl)cc2)CC1)c1ccc(F)cc1  85.5%
4. CCCCOc1cc(C(=O)NCCN(CC)CC)c2ccccc2n1 [DIBUCAINE]  77.4%
5. CN(C)CCCN1c2ccccc2CCc2ccc(Cl)cc21 [CLOMIPRAMINE]  76.6%
6. COc1ccc(CCN(C)CCCC(C#N)(c2ccc(OC)c(OC)c2)C(C)C)cc1OC (stereo unspecified)  74.4%
7. C=C[C@H]1CN2CC[C@H]1C[C@@H]2[C@@H](O)c1ccnc2ccc(OC)cc12 [QUINIDINE]  74.1%
8. CCCN(CC)C(CC)C(=O)Nc1c(C)cccc1C (stereo unspecified) [ETIDOCAINE]  73.2%
9. CCCCNc1ccc(C(=O)OCCN(C)C)cc1  72%
10. C=C[C@H]1CN2CC[C@H]1C[C@H]2[C@H](O)c1ccnc2ccc(OC)cc12 [QUININE]  69.3%
11. CCCCN1CCCCC1C(=O)Nc1c(C)cccc1C (stereo unspecified) [BUPIVACAINE]  63.4%
12. CN(C)CC/C=C1/c2ccccc2Sc2ccc(Cl)cc21 [CHLORPROTHIXENE]  55.2%
13. CCN(CC)CCCN1C(=O)CC2(CCCc3ccccc32)C1=O (racemic; form 2)  54.1%
14. COc1ccc(CN(CCN(C)C)c2ccccn2)cc1  44.5%
15. CN(C)CCCn1c2c(c3ccccc31)CCCCCC2  42.4%
16. CN1CC[C@@]23CCCC[C@@H]2[C@@H]1Cc1ccc(O)cc13 [DEXTRORPHAN]  38.2%
17. CN(C)C/C=C(/c1ccc(Br)cc1)c1cccnc1  34.6%
18. COC(=O)[C@H]1[C@H]2C[C@H]3c4[nH]c5ccccc5c4CCN3C[C@@H]2CC[C@@H]1O  33.7%
19. CC/C(=C(/CC)c1ccc(O)cc1)c1ccc(O)cc1  30.1%
20. CC(C)(C)NCC(O)COc1cccc2c1CCCC2=O (stereo unspecified)  27.3%
21. O=C(O)c1ccccc1Nc1cccc(C(F)(F)F)c1  26.7%
22. COC(=O)C1=C(C)NC(C)=C(C(=O)OC)C1c1ccccc1[N+](=O)[O-]  26%
23. CCN(CC)CCCN1C(=O)CC2(CCCc3ccccc32)C1=O (racemic; form 1)  25.7%
24. O=C1NC(=O)C(c2ccccc2)(c2ccccc2)N1  18.5%
25. COc1cc2c(cc1OC)-c1c/c(=N\c3c(C)cc(C)cc3C)n(C)c(=O)n1CC2  17.4%
26. CCCCOc1cc(CC2CNC(=O)N2)ccc1OC (stereo unspecified)  14.1%
27. COC(=O)[C@H]1[C@H]2C[C@H]3c4[nH]c5ccccc5c4CCN3C[C@H]2CC[C@@H]1O  13.1%
28. NC[C@H](CC(=O)O)c1ccc(Cl)cc1  11.7%
29. Cn1c(=O)c2nc(-c3ccccc3)[nH]c2n(C)c1=O  10.9%
30. CC(=O)Nc1ccc(OCC(O)CNC(C)C)cc1 (stereo unspecified)  8.4%
31. CC(C)(C)NC[C@H](O)COc1nsnc1N1CCOCC1  8%
32. CC(C)NCC(O)c1ccc([N+](=O)[O-])cc1 (stereo unspecified)  7.9%
33. NCC(CC(=O)O)c1ccc(Cl)cc1 (stereo unspecified)  6.2%
34. COc1ccc2c3c1O[C@H]1[C@@H](O)C=C[C@H]4[C@@H](C2)N(C)CC[C@@]341  5.7%
35. CCC1(c2ccccc2)C(=O)NC(=O)NC1=O  5.4%
36. C=CCC1(C(C)CCC)C(=O)NC(=O)NC1=O (stereo unspecified)  4.4%
37. CC(C)CCC[C@@H](C)[C@H]1CC[C@H]2[C@@H]3CC=C4C[C@@H](O)CC[C@]4(C)[C@H]3CC[C@]12C  3.3%
38. COc1cc2c3cc1Oc1cc(ccc1O)C[C@@H]1c4c(cc(OC)c(O)c4Oc4ccc(cc4)C[C@@H]3N(C)CC2)CC[N+]1(C)C  3%
39. C[C@H](Cc1ccccc1)Nc1ncnc2c1ncn2[C@@H]1O[C@H](CO)[C@@H](O)[C@H]1O  2.2%
40. NC(=O)N1c2ccccc2C=Cc2ccccc21  1.6%
41. CC[N+](CC)(CC)CC  1.4%
42. CC(C)[C@@]1(O)[C@@H](OC(=O)c2cc[nH]c2)[C@@]2(O)[C@]3(C)C[C@@]4(O)O[C@@]5([C@H](O)[C@@H](C)CC[C@]35O)[C@@]2(O)[C@@]41C  0%
